These results are taken from patent publication US20150366821A1, “ADRENERGIC AGONISTS FOR USE IN TREATING LIVER DAMAGE” (priority 2012, published 2015).

Series [1] deals with APAP induced liver injury. As to the kind of experiment: APAP induced liver injury model (serum ALT, % necrosis, deaths). Conditions: for ALT 3 h after APAP treatment: APAP alone vs APAP with ISO. Here is the method:
(§1) Dbh^−/− mice were administered ISO as previously described (Mackintosh, C. A., et al. 2000). Mouse recombinant TWEAK (R&D systems) was administered IP at 0.04 μg/g body weight.
The degree of liver injury was assessed by histology and serum ALT. All liver sections were stained with haematoxylin and eosin (H&E) and scanned by NanoZoomer (Hamamatsu, Japan). Necrotic area was measured and expressed as a percentage of necrotic tissue in whole area of liver section using NDP.view (Hamamatsu, Japan).

The test system of series [2] is canonical Wnt pathway (β-catenin, Wnt ligands). As to the kind of experiment: Canonical Wnt pathway in livers of APAP treated mice (western blot, immunohistochemistry, Wnt ligand PCR). In kind it is in vivo. The method, then:
Semi-quantitative real time PCR was done with Rotor-Gene 3000 (Corbett Robotics) and QuantiFast SYBR Green PCR kit (Qiagen). All real-time PCR reactions were performed in triplicate with GAPDH as an internal control. Target gene levels in treated samples are presented as a ratio to levels detected in corresponding control samples, according to the ΔΔCt method. Western blotting was performed as described (Soeda, J et al., 2012). Western blots shown are representative of 2 or 3 independent repeats. Semi-quantitative analysis of western blots by densitometry was carried out using LabWorks 4.6 software (UVP, USA).
On the technique in general: Immunoblotting shows a protein as a band on a membrane.

Series [3] deals with canonical Wnt pathway on HPC. Put plainly: Canonical Wnt pathway in liver of ISO treated mice (PCR, immunohistochemistry). Format: in vivo.
Method: FIG. 2F are immunohistochemical stains for active β-catenin in a mouse liver 24 hours after administration of vehicle (Con) or Isoprenaline (ISO). Left panel=lower magnification; Right panel=higher magnification;
Formalin-fixed paraffin-embedded tissue were cut at 4 μm onto glass slides coated with poly-l-lysine. For chromogenic IHC, antibody binding was visualized using the ImmPRESS Peroxidase Polymer Detection Reagents (Vector lab, UK). For double chromogenic IHC, microwave heat treatment in citric based solution (Vector lab, UK) were applied after the first color development. For immunofluorescence IHC or immunocytochemistry, Alexa Fluor 555 and Alexa Fluor 488 conjugated secondary antibody were used. Nuclei were stained with DAPI (Vector). All images were captured using a Nikon Eclipse e600 microscope and camera (DXM1200F) and acquired with NIS-Elements Advance software (Nikon).
Duplicate PCR reactions were performed with multiplex PCR kit (Qiagen) using mixed primer (GAPDH and target primer). Semi-quantitative real time PCR was done with Rotor-Gene 3000 (Corbett Robotics) and QuantiFast SYBR Green PCR kit (Qiagen). All real-time PCR reactions were performed in triplicate with GAPDH as an internal control. Target gene levels in treated samples are presented as a ratio to levels detected in corresponding control samples, according to the ΔΔCt method.
For series [4], the system named is hepatic progenitor cells (HPC). As to the kind of experiment: HPC number in livers of normal C57BL/6J mice (EpCAM flow cytometry, CK19 immunohistochemistry). In kind it is in vivo. To be noted: ISO 2.5 mg/kg. For orientation: Flow cytometry measures light scatter and fluorescence of single cells or particles in a stream.
From the text: Control mice received PBS vehicle (Con). Data are representative from 2 independent experiments. Data are mean±s.e.m. (n=4 per group);
Mice received either a control treatment (Con) or isoprenaline (ISO);
Formalin-fixed paraffin-embedded tissue were cut at 4 μm onto glass slides coated with poly-l-lysine. For chromogenic IHC, antibody binding was visualized using the ImmPRESS Peroxidase Polymer Detection Reagents (Vector lab, UK). For double chromogenic IHC, microwave heat treatment in citric based solution (Vector lab, UK) were applied after the first color development. For immunofluorescence IHC or immunocytochemistry, Alexa Fluor 555 and Alexa Fluor 488 conjugated secondary antibody were used. Nuclei were stained with DAPI (Vector). All images were captured using a Nikon Eclipse e600 microscope and camera (DXM1200F) and acquired with NIS-Elements Advance software (Nikon). HPC numbers were counted by an expert liver pathologist unaware of the identity of the groups as previously described (Oben, J. A., et al. 2003).
For series [5], the system named is hepatic progenitor cells (HPC). Put plainly: HPC number in APAP induced liver injury model (flow cytometry, immunohistochemistry).
The subject of the next series is β-catenin in hepatocytes. Put plainly: β-catenin expression on primary hepatocytes (western blotting). Conditions: data not shown. In kind it is cell-based, mice. Here is the method: Western blotting was performed as described (Soeda, J et al., 2012). Western blots shown are representative of 2 or 3 independent repeats. Semi-quantitative analysis of western blots by densitometry was carried out using LabWorks 4.6 software (UVP, USA).

Series [6] deals with HPC number and liver injury. As to the kind of experiment: Infusion of SNS agonists into spontaneously steatohepatitic ob/ob mice. Format: in vivo.
Another series relates to 603B cells. Put plainly: 603B cell proliferation assay (CCK-8 / direct cell counts). Format: cell-based, murine. The method, then:
Cell proliferation assay was performed using the Cell counting Kit-8 (CCK-8) according to the manufacturer's protocol.
To further confirm the CCK-8 assay we also directly counted the cell numbers in some experiments. Adherent cells were treated with 0.25% trypsin solution containing 0.02% EGTA in Ca^2+ and Mg^2+ free phosphate-buffered saline at 37° C. for 5 min, and the viable cell number and dead cell number was determined using Nucleocounter (Chemometec).

The subject of series [7] is canonical Wnt pathway (β-catenin) in 603B cells. As to the kind of experiment: Canonical Wnt pathway in 603B cells (western blot, immunocytochemistry, real-time PCR). Format: cell-based, murine.
The test system of series [8] is hepatic progenitor cells (HPC). As to the kind of experiment: CK19 positive HPC number in Dbh−/− mice infused with isoprenaline. Format: in vivo. Conditions: ISO infused at 20 mg/kg/day. The method, then:
as §1

The test system of series [9] is hepatic stellate cells (HSC) and Kupffer cells (KC). Put plainly: Wnt expression in isolated liver cell types ex vivo. Format: cell-based, mice. Conditions: presence of ISO.
In series [10] the test system is HPC expansion and hepatomegaly. As to the kind of experiment: Dbh−/− mice on a diet inducing NASH. Format: in vivo. To be noted: infusion of ISO.
The test system of series [11] is HPC population and liver injury. To be noted: in vivo conditions simulating NASH.
The subject of series [12] is liver progenitors and liver injury. Conditions: chronic model of liver disease; cited from earlier work.
For series [13], the system named is hepatic progenitor cells (HPC). Format: in vivo, mice. To be noted: recombinant TWEAK 0.04 μg/g IP. The text has this: FIG. 5C are representative images of immunohistochemical staining with CK19 (DAB chromogen, brown), upper panels; and CK19 with Ki67 (AEC chromogen, red), double staining (middle panels) and NFκB p65 immunostaining (lower panels). Insert=higher magnification, arrow head indicates positive staining of ki67 in CK 19+ve HPCs. White arrow head indicates nuclear localization of NFKb p65 in periportal ductular cells;
Nuclei were stained with DAPI (Vector).

The mark [14] stands for this setting: 24 h after APAP 375 mg/kg, APAP alone vs ISO (2.5 mg/kg) 1 h after APAP.

Take `CC(=O)Nc1ccc(O)cc1` [APAP, Paracetamol]: the “ALT 3 h after APAP treatment” value in [1] is recorded as “significant elevation in ALT”. The molecule further came in with an ALT in [1] (setting [14]) of 3332±462.9 IU/L. The deaths entry in [1] (APAP 500 mg/kg intraperitoneally) is reported as “significant number of deaths”.

Take `CC(C)NCC(O)c1ccc(O)c(O)c1` (stereo not shown) [ISO, Isoprenaline]: the “β-catenin expression in liver (Western blotting)” value in series [2] (24 h after injection, ISO treated vs APAP alone and controls) was “significantly increased”. Also, the “Wnt6 expression in total liver” value in series [2] (APAP+ISO group compared to APAP only group, 24 h) was “significantly higher expression”. In addition, the “Wnt 10a expression” value in series [2] (APAP+ISO group, 2 h after APAP administration) is “significantly higher expression”. In addition, the β-catenin activation result in [2] (APAP+ISO group, 3 h after APAP administration) was “significant β-catenin activation”. Also, the “activated β-catenin staining in liver (immunohistochemistry)” value in series [2] (APAP+ISO treated groups, 24 h) is given as “strong β-catenin staining”. The “ALT 3 h after APAP treatment” value in [1] is recorded as “significantly attenuated”. In series [1] (setting [14]), this molecule registered an ALT of 674.1±173 IU/L and a hepatic necrosis of 18.48±1.935%. In addition, the “effect on deaths after APAP” value in [1] (APAP 500 mg/kg intraperitoneally, ISO treatment) is recorded as “reduced by ISO treatment”. Also, the “APAP induced-liver injury (ALT)” value in series [1] (ISO administered 3 hrs post APAP) is recorded as “markedly reduced APAP induced-liver injury”. In addition, in series [3] (24 h after ISO injection), the “Wnt6 mRNA in total liver” value is reported as “upregulation of Wnt6 mRNA”. In addition, the “β-catenin immunoreactivity on periportal ductular cell” value in [3] (24 h after ISO, immunohistochemistry) is given as “strong β-catenin immunoreactivity”. Moreover, in [4], the “number of HPC cells (EpCAM flow cytometry, CK19 immunohistochemistry)” value is given as “increased the number of the HPC cells”. Further, the “number of HPCs (flow cytometry and immunohistochemistry)” value in [5] (APAP 375 mg/kg + ISO vs APAP alone) is “significantly increased the number of HPCs”. Also, the “HPC density in the smallest portal tract (CK19 positivity)” value in [5] (APAP+ISO group compared to APAP alone group) is “significantly increased”. Also, in the series with β-catenin in hepatocytes, the “β-catenin expression on hepatocytes (Western blotting)” value is listed as “did not increase β-catenin expression”. Moreover, in [6], the HPC number result is “increases in HPC number” and the liver injury entry is listed as “reduction in liver injury”. Further, in the series with 603B cells (ISO 100 pM-10 μM), the 603B cell proliferation result is “induced 603B cell proliferation”. In addition, the “protection of hepatocytes from APAP induced death (LDH release)” value in the series on primary hepatocytes (ISO pre-treatment 100 pM-10 μM, 10 mM APAP) is given as “did not protect”. Besides, the “Wnt1, 3a, 6 and ma mRNA expression” value in series [7] (10 μM ISO, real-time PCR) is recorded as “significantly increased”. Further, in [7] (10 μM ISO, western blot), the “expression of cyclin D1” value was “significantly upregulated”, the “expression of dephophorelated β-catenin (activated β-catenin)” value is on record as “significantly upregulated” and the “total β-catenin expression” value is “significantly increased”. Further, in series [7] (immunofluorescence cytochemistry), the “nuclear localisation of β-catenin” value is listed as “accumulation of β-catenin in the nuclei”. In series [8], the “HPC numbers (CK-19 positive cells)” value was “significantly recovered HPC numbers”. In addition, the “Wnt 6 expression in HSC or KC” value in [9] was “did not induce upregulation of Wnt 6”. Besides, the “loss of hepatomegaly and expansion of HPC on NASH diet” value in series [10] is given as “reversed”.

`CC(=O)N[C@@H](CS)C(=O)O` [NAC, N-Acetyl Cysteine]: the “hepatocyte injury (ALT)” value in series [1] (NAC 150 mg/kg administered 1 hour following APAP overdose) is “markedly reduces hepatocyte injury”. The “protection from APAP injury (ALT)” value in series [1] (NAC administered 3 hrs post APAP) is “did not have a protective role”.

`NC[C@H](O)c1ccc(O)c(O)c1` [NE, Norepinephrine]: in series [6], the HPC number entry is “increases in HPC number” and the liver injury result is recorded as “reduction in liver injury”.

`CNC[C@H](O)c1cccc(O)c1` [PE, phenylephrine]: the ALT is recorded as 2000±1200 in [1] (APAP 375 mg/kg, PE 3 mg (3 mg/kg) 1 h after APAP, 24 hrs) and 450±200 in series [1] (APAP 375 mg/kg, PE 10 mg (10 mg/kg) 1 h after APAP, 24 hrs). Moreover, the 603B cell proliferation result with 603B cells (PE 10 pM to 10 μM) was “induced moderate but significant proliferation”.

For the molecule `CC(C)NCC(O)COc1cccc2ccccc12` (stereo not shown) [PRL, propranolol], the “numbers of HPCs (CK19 positive cells density)” value in series [5] (APAP with subsequent PRL) is “reduced numbers of HPCs”. The “effect on ISO induced 603B proliferation” value with 603B cells (pre-treatment with 10 μM PRL, 10 μM ISO) is “inhibited ISO induced proliferation”. For the same molecule, in [11], the HPC population result is “expanded the HPC population”.

Turning to `COc1cc2nc(N3CCN(C(=O)c4ccco4)CC3)nc(N)c2cc1OC` [PRZ, prazosin], in [12], the liver injury result is on record as “reduced injury” and the liver progenitors result was “expanded liver progenitors”.

As for Wnt3a, the “β-catenin expression on hepatocytes (Western blotting)” value in the series on β-catenin in hepatocytes is on record as “induced increased β-catenin expression”.

B1: TWEAK: Tumour associated weak inducer of apoptosis; mouse recombinant TWEAK (R&D systems) (protein, UniProt O43508 94-249, looked up)
Tumor necrosis factor ligand …: SAPKGRKTRARRAIAAHYEVHPRPGQDGAQAGVDGTVSGWEEARINSSSPLRYNRQIGEFIVTRAGLYYLYCQVHFDEGKAVYLKLDLLVDGVLALRCLEEFSATAASSLGPQLRLCQVSGLLALRPGSSLRIRTLPWAHLKAAPFLTYFGLFQVH
With B1, the “APAP induced liver injury (% necrosis, serum ALT)” value in series [1] (TWEAK 0.04 μg/g pre-treatment before APAP, 24 h) is reported as “protected from APAP induced liver injury”. Further, the “HPC proliferation (CK19+ve cells)” value in series [13] is listed as “induced HPC proliferation”.

B2: DKK1: Wnt antagonist, recombinant mouse Dkk1 (protein, UniProt O54908 32-272, looked up)
Dickkopf-related protein 1: TLNSVLINSNAIKNLPPPLGGAGGQPGSAVSVAPGVLYEGGNKYQTLDNYQPYPCAEDEECGSDEYCSSPSRGAAGVGGVQICLACRKRRKRCMRHAMCCPGNYCKNGICMPSDHSHFPRGEIEESIIENLGNDHNAAAGDGYPRRTTLTSKIYHTKGQEGSVCLRSSDCAAGLCCARHFWSKICKPVLKEGQVCTKHKRKGSHGLEIFQRCYCGEGLACRIQKDHHQASNSSRLHTCQRH
B2: in series [1] (APAP + EpCAM+ve cells + DKK1), the “effect on protection by EpCAM positive cell administration” value is reported as “reversed the effect of EpCAM positive cell administration”. Further, the “proliferation of ISO-treated vs ISO plus DKK1-treated 603B cells” value with 603B cells (recombinant Dkk1 0.1 μg/ml, ISO 10 μM, CCK8) is on record as “trend towards statistical difference”. Moreover, the “effect on protection by ISO stimulated 603B conditioned media” value in the series on primary hepatocytes (recombinant DKK1 0.1 μg/ml with CM) was “reversed”.
